Assay results: PMC5942844, “Identification and characterization of the Fasciola hepatica sodium- and chloride-dependent taurine transporter” (PLoS Neglected Tropical Diseases, 2018)
Read-outs that look alike come from different tables or passages of the source.

Columns and labels:
[1] = target: T1, F. hepatica taurine transporter (FhTauT) (Fasciola hepatica, UniProt A0A2R4LGM2); assay: cell-based; details: for EC50: 0.1 μM [3H]taurine; for inhibition of the transporter (taurine uptake): inhibitors of GABA uptake or GABA degradation; for IC50: IC50 of unlabeled taurine for [3H]taurine uptake
T1 sequence (A0A2R4LGM2 1-647): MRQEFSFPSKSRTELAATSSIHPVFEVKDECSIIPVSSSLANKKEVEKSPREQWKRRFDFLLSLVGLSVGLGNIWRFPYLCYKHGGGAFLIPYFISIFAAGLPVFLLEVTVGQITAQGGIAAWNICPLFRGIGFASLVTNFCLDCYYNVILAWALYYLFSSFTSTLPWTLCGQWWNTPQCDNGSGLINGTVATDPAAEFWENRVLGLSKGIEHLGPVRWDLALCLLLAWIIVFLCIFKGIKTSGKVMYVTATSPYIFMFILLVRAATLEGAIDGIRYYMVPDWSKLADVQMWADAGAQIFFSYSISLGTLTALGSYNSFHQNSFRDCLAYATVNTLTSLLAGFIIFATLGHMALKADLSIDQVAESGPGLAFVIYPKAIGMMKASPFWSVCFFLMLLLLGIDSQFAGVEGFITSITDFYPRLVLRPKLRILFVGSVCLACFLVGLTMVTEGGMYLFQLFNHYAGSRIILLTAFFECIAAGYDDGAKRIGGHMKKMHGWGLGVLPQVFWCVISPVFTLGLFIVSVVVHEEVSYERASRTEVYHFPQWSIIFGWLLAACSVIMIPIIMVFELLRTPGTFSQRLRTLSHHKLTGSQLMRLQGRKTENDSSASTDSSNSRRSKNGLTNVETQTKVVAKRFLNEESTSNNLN
Method: (§1) Human embryonic kidney-293 (HEK293 (ATCC CRL-1573, LGC standards Wesel, Germany)) cells, were grown in Dulbecco`s modified Eagle medium (DMEM) supplemented with 10% fetal bovine serum (FCS Nuaille, France), 100 units/ml penicillin and 100 μg/ml streptomycin at 37°C and with 5% CO2 in a humidified incubator. Cells were transfected with plasmids encoding fluorescently tagged or untagged versions of F. hepatica (FhTauT) and H. sapiens (HsTauT) taurine transporter using Jet Prime transfection reagent (Polyplus-transfection, France). To generate monoclonal cell lines stably expressing the transporters, transfected cells were subjected to and selected with the concentration of 0.2 mg/ml geneticin (G418) for 10 days. Surviving cells forming colonies were separated and analyzed for membrane localization of transporters and transport of taurine. After the selection process cells were kept at 50 μg/ml G418 to keep the selection pressure.
(§2) For saturation uptake experiments, cells were plated the day before the experiment at a density of about 50,000 cells/well onto poly (D-lysine)-coated 48-well culture plates (CytoOne, USA). On the day of the experiment, cells were washed with prewarmed Krebs-HEPES buffer twice (KHB) (120 mM NaCl, 3 mM KCl, 2 mM CaCl2, 2 mM MgCl2, 20 mM glucose, 10 mM HEPES, pH 7.3). Then, cells were incubated in KHB containing tracer amounts (0.1 μM) of [^3H]taurine, (19.1 Ci/mmol) (Perkin Elmer, USA) together with increasing concentrations of non-labeled taurine 10 min. The reaction was terminated after 10 minutes by removing the medium followed by rapid rinsing of cells with ice-cold assay buffer. Subsequently, cells were lysed with 0.5 ml of 1% sodium dodecyl sulfate (SDS) and transferred into scintillation vials for liquid scintillation counting. Non-specific uptake was determined by incubating cells in the presence of the blocker β-alanine (100 mM) before and during the experiment and subtracted from uptake values. Data were fit to a Michaelis-Menten equation.
(§3) Chloride-free KHB was prepared to examine the chloride dependence of both, FhTauT and HsTauT using acetate salts instead of chloride salts. Likewise, NaCl was replaced by choline chloride to examine the sodium requirement. Uptake experiments were performed as described above using 0.1 μM [^3H]taurine in sodium- and chloride-free modified KHB, respectively, mixed with increasing amounts of NaCl containing KHB thereby varying Na^+ and respectively Cl^- concentration from 0–120 mM. The inhibition experiments were performed in analogous manner with 0.1 μM [^3H]taurine and the logarithmically spaced concentrations of inhibitors.

[2] = target: T2, human taurine transporter (HsTauT) (Homo sapiens, UniProt P31641); assay: [3H]taurine uptake by HEK293 cells stably expressing the human taurine transporter; details: for EC50: 0.1 μM [3H]taurine; for IC50: IC50 of unlabeled taurine for [3H]taurine uptake
T2 sequence (P31641 1-620): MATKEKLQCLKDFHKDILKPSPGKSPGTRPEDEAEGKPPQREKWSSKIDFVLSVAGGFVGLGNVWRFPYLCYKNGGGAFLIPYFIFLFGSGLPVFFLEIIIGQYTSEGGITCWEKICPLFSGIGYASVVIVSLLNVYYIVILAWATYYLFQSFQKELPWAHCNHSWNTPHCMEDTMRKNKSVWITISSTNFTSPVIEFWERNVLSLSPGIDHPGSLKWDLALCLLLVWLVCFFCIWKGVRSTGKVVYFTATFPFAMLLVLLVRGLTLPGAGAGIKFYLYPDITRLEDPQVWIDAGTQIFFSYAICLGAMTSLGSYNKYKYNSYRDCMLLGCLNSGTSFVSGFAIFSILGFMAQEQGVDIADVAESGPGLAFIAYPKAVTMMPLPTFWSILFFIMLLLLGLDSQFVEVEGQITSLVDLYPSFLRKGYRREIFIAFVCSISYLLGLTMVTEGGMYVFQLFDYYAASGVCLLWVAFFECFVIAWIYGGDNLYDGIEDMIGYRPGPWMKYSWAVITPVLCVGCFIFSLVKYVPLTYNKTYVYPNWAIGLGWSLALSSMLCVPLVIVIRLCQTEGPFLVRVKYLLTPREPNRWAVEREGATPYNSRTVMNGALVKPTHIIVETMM
Method: as §1, §2, §3

[3] = test system: adult F. hepatica; assay type: cell-based; details: for time all flukes alive and motile: Hédon-Fleig medium; for survival of flukes: 4 h
Method: Fig 8 Survival of adult F. hepatica in bile acid-containing medium in the presence and absence of taurine. A: Adult flukes (12 flukes/condition in individual wells) were incubated at 37°C and 5% CO2 in a humidified atmosphere in Hédon Feig medium in the absence (control, closed circles) or presence of 50 μM taurine (closed circle), of 2 mM GES (GES, closed triangle) or of bile acids (closed triangle, 5 mM cholic acid, 1.5 mM deoxycholic acid and 0.5 mM chenodeoxycholic acid). The number of dead flukes was recorded at the indicated time points. B: Adult flukes were incubated at 37°C and 5% CO2 in a humidified atmosphere in Hédon Feig medium in the absence (control) or presence of bile acids (5 mM cholic acid, 1.5 mM deoxycholic acid and 0.5 mM chenodeoxycholic acid). Where indicated, the medium contained, in addition, 50 μM taurine or the combination of 50 μM taurine and 2 mM GES (GES) for 4h. The number of dead flukes was recorded at the end of the incubation period. The data are from three independent experiments with 11 to 12 flukes/condition. […] Thus, after Bonferroni correction for multiple testing (with α≤0.016), taurine afforded a statistically significant protection against bile acids.
F. hepatica was isolated from the bile ducts of cows slaughtered at Alpenrind GmbH (Salzburg, Austria). Flukes were kept in modified Hedon Fleig`s solution at 37°C and 5% CO2 in a humidified atmosphere. Before the experiment, flukes were maintained at 37°C for three days after extraction to clear them from bile acids. Living flukes (judged by observing movement after gently tapping them with metal forceps) were transferred into flasks containing either Hedon Fleig`s Solution alone or Hedon Fleig`s Solution supplemented with combinations of bile acids (5 mM cholic acid (CA), 1.5 mM deoxycholic acid (DCA) and […] chenodeoxycholic acid (CDC)), 50 μM taurine and 2 mM guanidinoethyl sulfonate (GES). Survival of flukes was determined again after four hours of treatment.

[4] = substrate: NCCS(=O)(=O)O; assay: cells, lysate or membranes; details: other: 10 min uptake, HEK293 cells; pH 7.3; 37.0 °C
[5] = read-out: EC50 of Na+ for half-maximum stimulation of transport, sodium replaced with choline
[6] = HEK293, read-out: residual [3H]taurine uptake
[7] = read-out: EC50 of chloride for substrate uptake (apparent affinity), chloride replaced with acetate
[8] = read-out: EC50 of chloride for substrate uptake (apparent affinity), chloride replaced with acetate, listed as Cl^-

[Na+] [Na^+]
EC50 [1, 5]: 51.4 ± 6 mM | Hill coefficient of sodium saturation curve ([1]; sodium replaced with choline): 1.6±0.1 | EC50 [2, 5]: 56.5 ± 7.1 mM | Hill coefficient of sodium saturation curve ([2]; sodium replaced with choline): 2.3±0.1

C=CC(N)CCC(=O)O (stereo not drawn) [vigabatrin]
inhibition of the transporter (taurine uptake) [1]: failed to inhibit

NC(N)=NCCS(=O)(=O)O [GES, guanidinoethyl sulfonate]
mode of inhibition of taurine uptake ([1]; Dixon plot, intersecting lines): non-competitive inhibitor | remaining activity at 1000 µM [1, 6]: ~75% | remaining activity at 3000 µM [1, 6]: ~40% | affinity of F. hepatica transporter relative to human transporter ([1]; comparison of residual uptake, Fig 6A vs 6C): about ten-fold lower | mode of inhibition of taurine uptake ([2]; Dixon plot, parallel lines): competitive inhibition | time all flukes alive and motile ([3]; 2 mM GES alone): at least 6 h | survival of flukes ([3]; bile acids plus 50 μM taurine plus 2 mM GES): 44%

NCCS(=O)(=O)O [taurine, 2-aminoethanesulfonic acid]
IC50 ([1]; absence of GES): 0.0117 ± 0.0041 mM | IC50 ([1]; presence of 1 mM GES): 0.0187 ± 0.0067 mM | IC50 ([1]; presence of 3 mM GES): 0.016 ± 0.0042 mM | maximum velocity of uptake ([1]; [3H]taurine, HEK293 cells): 178 ± 2 pmol*10^−6 cells*min^-1 | [3H]taurine accumulation relative to untransfected control cells ([1]; transfected vs untransfected HEK293 cells): about 10 fold | IC50 ([2]; absence of GES): 0.0412 ± 0.0082 mM | IC50 ([2]; presence of 0.1 mM GES): 0.0521 ± 0.0095 mM | IC50 ([2]; presence of 0.3 mM GES): 0.0989 ± 0.0201 mM | maximum velocity of uptake ([2]; [3H]taurine, HEK293 cells): 971.0 ± 60.3 pmol*10^−6 cells*min^-1 | time all flukes alive and motile ([3]; 50 μM taurine alone): at least 6 h | survival of flukes ([3]; bile acids plus 50 μM taurine): about 80%

Cl [chloride]
EC50 [1, 7]: 13.9 ± 3.1 mM | EC50 [1, 8]: 14 ± 3 mM | EC50 [2, 7]: 54.8 ± 6.9 mM | EC50 [2, 8]: 55 ± 7 mM

Cc1ccsc1C(=CCCN1CCC[C@@H](C(=O)O)C1)c1sccc1C [tiagabine]
inhibition of the transporter (taurine uptake) [1]: failed to inhibit

B1: human taurine transporter (HsTauT) (Homo sapiens) (protein)
chain: MATKEKLQCLKDFHKDILKPSPGKSPGTRPEDEAEGKPPQREKWSSKIDFVLSVAGGFVGLGNVWRFPYLCYKNGGGAFLIPYFIFLFGSGLPVFFLEIIIGQYTSEGGITCWEKICPLFSGIGYASVVIVSLLNVYYIVILAWATYYLFQSFQKELPWAHCNHSWNTPHCMEDTMRKNKSVWITISSTNFTSPVIEFWERNVLSLSPGIDHPGSLKWDLALCLLLVWLVCFFCIWKGVRSTGKVVYFTATFPFAMLLVLLVRGLTLPGAGAGIKFYLYPDITRLEDPQVWIDAGTQIFFSYAICLGAMTSLGSYNKYKYNSYRDCMLLGCLNSGTSFVSGFAIFSILGFMAQEQGVDIADVAESGPGLAFIAYPKAVTMMPLPTFWSILFFIMLLLLGLDSQFVEVEGQITSLVDLYPSFLRKGYRREIFIAFVCSISYLLGLTMVTEGGMYVFQLFDYYAASGVCLLWVAFFECFVIAWIYGGDNLYDGIEDMIGYRPGPWMKYSWAVITPVLCVGCFIFSLVKYVPLTYNKTYVYPNWAIGLGWSLALSSMLCVPLVIVIRLCQTEGPFLVRVKYLLTPREPNRWAVEREGATPYNSRTVMNGALVKPTHIIVETMM
Km [4]: 41.0 ± 10.4 µM

B2: F. hepatica taurine transporter (FhTauT) (Fasciola hepatica) (protein)
chain: MRQEFSFPSKSRTELAATSSIHPVFEVKDECSIIPVSSSLANKKEVEKSPREQWKRRFDFLLSLVGLSVGLGNIWRFPYLCYKHGGGAFLIPYFISIFAAGLPVFLLEVTVGQITAQGGIAAWNICPLFRGIGFASLVTNFCLDCYYNVILAWALYYLFSSFTSTLPWTLCGQWWNTPQCDNGSGLINGTVATDPAAEFWENRVLGLSKGIEHLGPVRWDLALCLLLAWIIVFLCIFKGIKTSGKVMYVTATSPYIFMFILLVRAATLEGAIDGIRYYMVPDWSKLADVQMWADAGAQIFFSYSISLGTLTALGSYNSFHQNSFRDCLAYATVNTLTSLLAGFIIFATLGHMALKADLSIDQVAESGPGLAFVIYPKAIGMMKASPFWSVCFFLMLLLLGIDSQFAGVEGFITSITDFYPRLVLRPKLRILFVGSVCLACFLVGLTMVTEGGMYLFQLFNHYAGSRIILLTAFFECIAAGYDDGAKRIGGHMKKMHGWGLGVLPQVFWCVISPVFTLGLFIVSVVVHEEVSYERASRTEVYHFPQWSIIFGWLLAACSVIMIPIIMVFELLRTPGTFSQRLRTLSHHKLTGSQLMRLQGRKTENDSSASTDSSNSRRSKNGLTNVETQTKVVAKRFLNEESTSNNLN
Km [4]: 12.0 ± 0.5 µM
